Measurements as given in patent US12472185B2, “Methods for killing antibiotic tolerant bacteria” (THE PENN STATE RESEARCH FOUNDATION, priority 2020, dated 2025).

Tests used:
[1] = system: E. coli BW25113 persister cells; test: Survival of persister cells (rifampicin/ampicillin generated); format: cell-based, Escherichia coli; conditions: 100 μM
Description: FIG. 3. NPIMA kills Escherichia coli, Pseudomonas aeruginosa, persister cells. Survival of (a) E. coli BW25113 and (b) P. aeruginosa PA14 after treatment with NPIMA (100 μM), 5-iodoindole (5-II, 100 μM), and DMSO for 6 hr. Asterisk indicates no viable cells detected. DMSO, dimethyl sulfoxide; NPIMA, 5-nitro-3-phenyl-1H-indol-2-yl-methylamine hydrochloride.
E. coli persister cells were prepared following our previous method (Kim, Yamasaki, et al., 2018; Kwan, Valenta, Benedik, & Wood, 2013). Exponentially-growing cells (turbidity of 0.8 at 600 nm) were treated with rifampicin (100 μg/ml for 30 min) to stop transcription, washed, and any remaining nonpersister cells were lysed by ampicillin in LB (100 μg/ml for 3 hr). Cells were harvested by centrifugation (17,000 g for 1 min) and washed with 1× phosphate-buffered saline buffer (PBS, 8 g NaCl, 0.2 g KCl, 1.15 g Na2HPO4, and 0.2 g KH2PO4 per 1,000 ml) twice to remove all possible carbon sources, then resuspended with 1×PBS. Natural E. coli persister cells were generated by treating stationary-phase cells (turbidity of 6 at 600 nm) with ampicillin (100 μg/ml) for 3 hr. P. aeruginosa PA14 persister cells were prepared by incubating to the stationary phase, diluting sixfold, and treating with carbonyl cyanide m-chlorophenylhydrazone (CCCP, 50 mg/ml stock solution in dimethly sulfoxide [DMSO]) to stop adenosine triphosphate (ATP) production (200 μg/ml for 3 hr), washed twice with 0.85% NaCl (5,000 g for 10 min), and any nonpersister cells were killed by ciprofloxacin (5 μg/ml) in LB for 3 hr. Following the antibiotic treatment, bacteria were washed twice with 0.85% NaCl (5,000 g for 10 min).
For bacterial viability, cells were washed twice with 0.85% NaCl, resuspended in 1×PBS, and cell counts were determined via the drop assay (Donegan, Matyac, Seidler, & Porteous, 1991). […] Cell viability was determined via a cell counting kit (CCK-8 Kit, ab228554; Abcam), and cytotoxicity was determined via the lactate dehydrogenase (LDH) assay (LDH Assay Kit, MK401; Takara).

E. coli BW25113 = test: LIVE/DEAD staining; format: cell-based, Escherichia coli; conditions: 100 μM, exponentially-growing cells
Description: FIG. 4. NPIMA lyses Escherichia coli, Pseudomonas aeruginosa, and Staphylococcus aureus. LIVE/DEAD staining of (a) E. coli BW25113 after 0.75 hr, (b) P. aeruginosa PA14 after 1 hr, and (c) S. aureus after 1 hr treatment with NPIMA at 100 μM. […] White arrows indicate lysed cells. Representative images are shown. Scale bar=[…]. NPIMA, 5-nitro-3-phenyl-1H-indol-2-ylmethylamine hydrochloride.
Cell viability after treating with NPIMA was determined using the using the LIVE/DEAD BacLight Bacterial Viability Kit (catalog number, L7012; Molecular Probes, Inc., Eugene, OR). The fluorescence signal was analyzed via a Zeiss Axioscope.A1 using excitation at 485 nm and emission at 530 nm for green fluorescence and using excitation at 485 nm and emission at 630 nm for red fluorescence.

Cl.NCc1[nH]c2ccc([N+](=O)[O-])cc2c1-c1ccccc1 [NPIMA, [(5-nitro-3-phenyl-1H-indol-2-yl)methyl]amine hydrochloride]
time to eradicate E. coli persisters [1]: 6 h | killing of E. coli persister cells ([1]; 6 hr): eradicated | cell lysis seen by LIVE/DEAD staining (extracellular DNA) (E. coli BW25113): lysed
